Two compounds from paper PMC4837341, “Drug target identification using network analysis: Taking active components in Sini decoction as an example” (Scientific Reports, 2016) can be followed below.

For the assay, the target named is T1, TNF-α (recombinant mouse TNF-α) (Mus musculus, UniProt P06804).
T1 construct: recombinant, purchased from Sigma; amine-coupled to CM5 chip
T1 sequence (P06804 80-235): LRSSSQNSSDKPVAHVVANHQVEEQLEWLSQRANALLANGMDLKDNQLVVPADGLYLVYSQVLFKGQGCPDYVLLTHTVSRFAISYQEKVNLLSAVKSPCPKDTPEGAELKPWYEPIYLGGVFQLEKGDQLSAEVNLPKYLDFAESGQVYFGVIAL
As to the kind of experiment: SPR (BIAcore T200, TNF-α immobilised on CM5, […] model). Format: binding.

The Kd is the equilibrium constant for the complex coming apart.

`O=c1c(O)c(-c2ccc(O)c(O)c2)oc2cc(O)cc(O)c12` [H11, Quercetin]: the equilibrium dissociation constant (Kd) turned out to be 35 µM.

With `Oc1ccc(CC2NCCc3cc(O)c(O)cc32)cc1` (centres unmarked) [S39, Higenamine], the Kd stood at 67 µM.
